These compounds were tested against T1, Syk kinase (Homo sapiens, UniProt P43405) (assay: Syk kinase inhibition, Caliper LabChip off-chip mobility-shift kinase assay). Settings: Caliper LabChip assay; read-out: Syk Enzyme IC50.
T1 construct: purchased
Format: biochemical
In short: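 Purified Syk pre-incubated 15 min with compound in 100 mM HEPES pH 7.5, 1 mM DTT, 10 mM MgCl2 or MnCl2, 0.002% Brij-35, then 1.5 μM fluorescein peptide and ATP at apparent KM added; 1–1.5 h at room temperature, 4% DMSO, EDTA stop. Microfluidic mobility-shift product/substrate conversion gave % inhibition; IC50 from 12-point series (10–0.00003 μM) by 4-parameter fit.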

| Compound | IC50 |
| --- | --- |
| CC(C)(C)Nc1nc(Nc2cc(CN3CC(O)C3)ccn2)cc2ccn(CCO)c(=O)c12 [Compound No. 600, 8-(tert-butylamino)-6-(4-((3-hydroxyazetidin-1-yl)methyl)pyridin-2-ylamino)-2-(2-hydroxyethyl)-2,7-naphthyridin-1(2H)-one] | 18.6 nM |
| CC(C)n1ccc2cc(-c3cnc(N)nc3)nc(N[C@H]3CC[C@@H](CO)C3)c2c1=O [compound 1030] | 48 nM |
| CC(O)c1ccnc(Nc2cc3ccn(CC(N)=O)c(=O)c3c(NC3(C)CC3)n2)c1 (centres unmarked) [compound 723] | 48 nM |
| CC(C)(C)Nc1nc(Nc2cc(C(C)(C)O)c(F)cn2)cc2ccn(CC(N)=O)c(=O)c12 [compound 877] | 94 nM |
| [2H]C([2H])([2H])n1ccc2cc(Nc3cnccn3)nc(NC3CC3)c2c1=O [compound 824] | 18 nM |
| COCC(COC)n1ccc2cc(-c3cnc(N)nc3)nc(NC(C)(C)C)c2c1=O [compound 936] | 15 nM |
| CC(C)(C)Nc1nc(Nc2cc(C(C)(C)O)c(Cl)cn2)cc2ccn(CCO)c(=O)c12 [compound 728] | 283 nM |
| CC[C@H](CO)Nc1nc(Nc2cc(C)ccn2)cc2ccn(CC)c(=O)c12 [compound 598] | 518 nM |
| CC(C)(C)Nc1nc(Nc2cnccn2)cc2ccn(Cc3nn[nH]n3)c(=O)c12 [compound 884] | 27 nM |
| Nc1ncc(-c2cc3ccn(CCO)c(=O)c3c(N[C@H]3CC[C@@H](O)CC3)n2)cn1 [compound 1028] | 14 nM |
| CC(C)(C)Nc1nc(Nc2cnccn2)cc2cc[nH]c(=O)c12 [compound 679] | 12 nM |
| CCn1ccc2cc(-c3cnc(N)nc3)nc(NC3(CO)CCC3)c2c1=O [compound 905] | < 1.01 nM |
| C[C@@H](CO)Nc1nc(Nc2cnccn2)cc2ccn(CCN3CCOCC3)c(=O)c12 [compound 996] | 158 nM |
| Cc1ccnc(Nc2cc3ccn(CCO)c(=O)c3c(NC3CC3)n2)c1 [compound 817] | 108 nM |
| CCn1ccc2cc(Nc3cnccn3)nc(N[C@H]3CCC[C@H]3O)c2c1=O [compound 938] | 24 nM |
| CC(C)(C)Nc1nc(Nc2cc(C(C)(C)CO)ccn2)cc2ccn(CCO)c(=O)c12 [compound 863] | 301 nM |
| CCn1ccc2cc(Nc3cc(C(C)(C)O)ccn3)nc(NC3(CO)CCC3)c2c1=O [compound 703] | 85 nM |
| Nc1ncc(-c2cc3ccn(CCO)c(=O)c3c(NC3(CO)CCC3)n2)cn1 [compound 903] | 26 nM |
| CCC(O)(CC)c1ccnc(Nc2cc3ccn(CCO)c(=O)c3c(NC(C)(C)C)n2)c1 [compound 708] | 595 nM |

| Compound | IC50 |
| --- | --- |
| CC(C)Nc1nc(-c2cnc(N)nc2)cc2ccn(CCO)c(=O)c12 [compound 892] | 136 nM |
| CC(C)(C)Nc1nc(Nc2cnccn2)cc2ccn(CCS(C)(=O)=O)c(=O)c12 [compound 738, 8-(tert-butylamino)-2-(2-(methylsulfonyl)ethyl)-6-(pyrazin-2-ylamino)-2,7-naphthyridin-1(2H)-one] | 9 nM |
| CC(C)(C)Nc1nc(Nc2cc(C3CCNCC3)ncn2)cc2ccn(CCO)c(=O)c12 [compound 638] | 96 nM |
| CCn1ccc2cc(Nc3nccc(O)n3)nc(N[C@H]3CC[C@@H](O)C3)c2c1=O [compound 961] | 23 nM |
| CCn1ccc2cc(Nc3nccc(O)n3)nc(N[C@@H]3CC[C@@H](O)C3)c2c1=O [compound 960] | 61 nM |
| COCCn1ccc2cc(Nc3cnccn3)nc(NC(C)(C)C)c2c1=O [compound 1006] | 96 nM |
| CC(C)(C)Nc1nc(Nc2cc(CO)ccn2)cc2ccn(CCO)c(=O)c12 [compound 693] | 42 nM |
| CC(C)n1ccc2cc(Nc3cc(C(C)(C)O)ccn3)nc(N[C@H]3CC[C@@H](O)CC3)c2c1=O [compound 706] | 55 nM |
| CC(C)(C)Nc1nc(Nc2cc(C(C)(C)O)c(F)cn2)cc2ccn(CCO)c(=O)c12 [compound 717] | 18 nM |
| CC(C)n1ccc2cc(Nc3cnccn3)nc(N[C@H]3CC[C@@H](CO)C3)c2c1=O [compound 988] | 3 nM |
| CC1(Nc2nc(Nc3cc(C(O)C(F)(F)F)ccn3)cc3ccn(CC(N)=O)c(=O)c23)CC1 (centres unmarked) [compound 614] | 66 nM |
| CCn1ccc2cc(Nc3cnccn3)nc(N[C@@H]3CCC[C@H]3O)c2c1=O [compound 940] | 483 nM |
| Cn1cc(-c2cc(Nc3cc4ccn(CCO)c(=O)c4c(NC(C)(C)C)n3)ncn2)cn1 [compound 636] | 237 nM |
| CC(C)(C)Nc1nc(Nc2cnccn2)cc2ccn(CC(=O)N3CCOCC3)c(=O)c12 [compound 1008] | 238 nM |
| CCn1ccc2cc(Nc3cnccn3)nc(NS(C)(=O)=O)c2c1=O [compound 745] | 69 nM |
| CC(C)(C)Nc1nc(Nc2cc(C(C)(F)F)ccn2)cc2ccn(CCO)c(=O)c12 [compound 874] | 33 nM |
| [2H][C@]1(O)CC[C@H](Nc2nc(Nc3cnccn3)cc3ccn(CC)c(=O)c23)CC1 [compound 991] | 29 nM |
| CC(C)(C)Nc1nc(Nc2cnccn2)c(Cl)c2ccn(CCO)c(=O)c12 [compound 837] | 1060 nM |

Same assay, conditions: read-out: Syk Enzyme IC50

| Compound | IC50 |
| --- | --- |
| O=c1[nH]ccc2cc(Nc3ccccn3)nc(N[C@@H]3CCC[C@H]3O)c12 (racemic) [compound 277] | 860 nM |
| Cc1ccnc(Nc2cc3cc[nH]c(=O)c3c(N3CCOCC3)n2)c1 [compound 272] | 278 nM |
| Cc1ccnc(Nc2cc3ccn(CCO)c(=O)c3c(NC(C)C)n2)c1 [compound 313] | 85 nM |
| Cn1ccc2cc(Nc3cnccn3)nc(N[C@H]3CCC[C@H]3O)c2c1=O (racemic) [compound 328] | 39 nM |
| Cc1ccnc(Nc2cc3cc[nH]c(=O)c3c(NC(C)C(C)C)n2)c1 (centres unmarked) [compound 268] | 343 nM |
| CCc1ccnc(Nc2cc3cc[nH]c(=O)c3c(NC(C)C)n2)c1 [compound 491] | 63 nM |
| COc1cncc(-c2cc3cc[nH]c(=O)c3c(Nc3ccc(CCN4CC5CNCC5C4)cc3)n2)n1 (centres unmarked) [compound 433] | 51 nM |
| Nc1ncc(-c2cc3cc[nH]c(=O)c3c(N[C@@H]3CCC[C@@H]3O)n2)cn1 [compound 182] | 30 nM |
| CCN(CC)CCNC(=O)c1ccc(Nc2nc(Nc3cnccn3)cc3ccn(C)c(=O)c23)cc1 [compound 338] | 1620 nM |
| COc1cncc(-c2cc3cc[nH]c(=O)c3c(Nc3ccc(C4CCN(C(C)C(=O)N(C)C)CC4)c(C)c3)n2)n1 (centres unmarked) [compound 170] | 6 nM |
| [2H]C([2H])([2H])n1ccc2cc(Nc3cnccn3)nc(N[C@@H](C)CO)c2c1=O [compound 402] | 45.7 nM |
| COCC(C)N1CCC(c2ccc(Nc3nc(-c4cncc(OC)n4)cc4cc[nH]c(=O)c34)cc2C)CC1 (centres unmarked) [compound 174] | 14 nM |
| COCCN1CCN(c2n[nH]c3cc(Nc4nc(-c5cnc(OC)nc5)cc5cc[nH]c(=O)c45)ccc23)CC1 [compound 216] | 37 nM |
| O=c1[nH]ccc2cc(Nc3cc(Cl)ccn3)nc(NC3CC3)c12 [compound 481] | 122 nM |
| CCOCCOc1cccc(Nc2nc(Nc3cc(C)ccn3)cc3ccn(C)c(=O)c23)c1 [compound 335] | 1610 nM |
| CNC(C)(C)C(=O)N1CCC(c2ccc(Nc3nc(-c4cncc(OC)n4)cc4cc[nH]c(=O)c34)cc2C)CC1 [compound 84] | 5 nM |
| Cc1ccnc(Nc2cc3cc[nH]c(=O)c3c(Nc3ccc(N4CCOCC4)cc3)n2)c1 [compound 480] | 15 nM |
| Cc1ccnc(Nc2cc3ccn(C)c(=O)c3c(Nc3ccc(C4CCN(CCS(C)(=O)=O)CC4)cc3)n2)c1 [compound 311] | 496 nM |
| COc1cncc(-c2cc3cc[nH]c(=O)c3c(Nc3ccc(C4CCN(CC5CCCO5)CC4)c(C)c3)n2)n1 (centres unmarked) [compound 77] | 115 nM |

| Compound | IC50 |
| --- | --- |
| Cc1ccnc(Nc2cc3ccn(CCO)c(=O)c3c(NC(C)(C)CO)n2)c1 [compound 495] | 52 nM |
| CCN1CCN(CCc2ccc(Nc3nc(-c4cnn(C)c4)cc4c(F)c[nH]c(=O)c34)cc2)CC1 [compound 442] | 107 nM |
| COCCCN1CCC(c2ccc(Nc3nc(-c4cnc(OC)nc4)cc4cc[nH]c(=O)c34)cc2F)CC1 [compound 196] | 59 nM |
| C[C@@H](O)CNc1nc(-c2cnc(N)nc2)cc2cc[nH]c(=O)c12 [compound 452] | 140 nM |
| COc1cncc(-c2cc3cc[nH]c(=O)c3c(Nc3ccc(CCN4CCN(C(C)=O)CC4)cc3)n2)n1 [compound 45] | 61 nM |
| Cc1ccnc(Nc2cc3ccn(C)c(=O)c3c(Nc3ccc(S(C)(=O)=O)cc3)n2)c1 [compound 332] | 78 nM |
| CCN1CCN(CCc2ccc(Nc3nc(-c4cnn(C)c4)cc4cc[nH]c(=O)c34)cc2)CC1 [compound 441] | 58 nM |
| CCNC(=O)c1ccc(Nc2nc(Nc3cnccn3)cc3ccn(C)c(=O)c23)cc1 [compound 381] | 604 nM |
| COc1cncc(-c2cc3cc[nH]c(=O)c3c(Nc3ccc(C4CCN(CC(O)CO)CC4)c(C)c3)n2)n1 (centres unmarked) [compound 166] | 3 nM |
| COc1cncc(-c2cc3cc[nH]c(=O)c3c(Nc3ccc([C@H]4CC[C@H](N5CCOCC5)CC4)cc3)n2)n1 [compound 56] | 358 nM |
| C[C@H](O)CNc1nc(-c2cnc(N)nc2)cc2cc[nH]c(=O)c12 [compound 451] | 88 nM |
| [2H]C([2H])([2H])n1ccc2cc(Nc3cnccn3)nc(NC3CC3)c2c1=O [compound 467] | 49 nM |
| [2H]C([2H])([2H])n1ccc2cc(Nc3cc(C)c(F)cn3)nc(NC3CC3)c2c1=O [compound 547] | 415 nM |
| Cn1ccc2cc(Nc3cnccn3)nc(N)c2c1=O [compound 479] | 599 nM |
| CNS(=O)(=O)c1ccc(Nc2nc(Nc3cc(C)ccn3)cc3ccn(C)c(=O)c23)cc1 [compound 349] | 414 nM |
| Cc1ccnc(Nc2cc3cc[nH]c(=O)c3c(N3CC[C@H](CO)C3)n2)c1 [compound 400] | 897 nM |
| COc1cncc(-c2cc3cc[nH]c(=O)c3c(Nc3ccc(C4CCN(C(=O)C(C)(C)N)CC4)c(C)c3)n2)n1 [compound 52] | 30 nM |
| COc1cncc(-c2cc3cc[nH]c(=O)c3c(Nc3ccc(C4CCN(CCC(=O)N(C)C)CC4)c(C)c3)n2)n1 [compound 159] | 38 nM |
